From patent US8318769B2, “Substituted sulfonamide compounds” (Gruenethal GmbH, priority 2008, dated 2012)

Experiments:
[1] = molecular target: T1, bradykinin 1 receptor (B1R) of the rat (Rattus norvegicus, UniProt P97583); assay: FLIPR Ca2+ assay, B1R antagonism, rat; format: cell-based; conditions: CHO K1 cells with rat B1R gene (rB1R cells), Des-Arg9-bradykinin at EC80, % inhibition compared with the maximum achievable inhibition
T1 construct: expressed in transfected cells
T1 sequence (P97583 1-337): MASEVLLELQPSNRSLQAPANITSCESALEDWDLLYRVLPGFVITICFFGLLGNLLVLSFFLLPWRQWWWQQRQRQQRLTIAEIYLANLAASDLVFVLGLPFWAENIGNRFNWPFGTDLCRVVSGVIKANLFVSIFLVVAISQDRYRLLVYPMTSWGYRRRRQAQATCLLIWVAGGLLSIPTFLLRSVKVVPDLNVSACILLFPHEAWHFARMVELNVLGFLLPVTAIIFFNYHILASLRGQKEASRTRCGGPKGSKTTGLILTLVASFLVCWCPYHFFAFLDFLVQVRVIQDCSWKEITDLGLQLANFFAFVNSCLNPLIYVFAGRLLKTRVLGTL
Outline: (§1)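 Antagonism is given as % of maximum achievable suppression of agonist-evoked Ca2+ influx, measured by Fluo-4 peak fluorescence in FLIPR. Stable hB1R or rB1R CHO K1 lines received 10 μM compound for 10-20 min before EC80 Lys-Des-Arg9-bradykinin (human) or Des-Arg9-bradykinin (rat).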

[2] = molecular target: T2, human bradykinin 1 receptor (B1R) (Homo sapiens, UniProt P46663); assay: FLIPR Ca2+ assay, B1R antagonism, human; format: cell-based; conditions: 10 μM test substance, CHO K1 cells with human B1R gene (hB1R cells), Lys-Des-Arg9-bradykinin at EC80, % inhibition compared with the maximum achievable inhibition
T2 construct: expressed in transfected cells
T2 sequence (P46663 1-353): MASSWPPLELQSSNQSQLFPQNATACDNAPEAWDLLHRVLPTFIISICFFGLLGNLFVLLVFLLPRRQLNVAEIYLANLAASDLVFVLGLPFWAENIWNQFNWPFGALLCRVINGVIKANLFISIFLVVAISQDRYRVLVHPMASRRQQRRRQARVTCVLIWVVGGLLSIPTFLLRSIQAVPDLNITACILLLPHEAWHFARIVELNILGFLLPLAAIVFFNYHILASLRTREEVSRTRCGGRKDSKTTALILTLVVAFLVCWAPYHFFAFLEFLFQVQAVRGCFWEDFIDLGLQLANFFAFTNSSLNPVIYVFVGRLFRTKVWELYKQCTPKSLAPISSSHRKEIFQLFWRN
Outline: as §1

Row | inhibition at 10 µM ([1]; CHO-K1, 10 μM test substance, read-out: B1R antagonism, rat [10 μM] % inhibition) | inhibition at 10 µM ([2]; read-out: B1R antagonism, human [10 μM] % inhibition) | B1R antagonism, rat [10 μM] % inhibition ([1]; 10 μM test substance, 10 µM) | B1R antagonism, human [10 μM] % inhibition [2] | SMILES
1 | 99% | 100% |  |  | COc1cc(C)c(S(=O)(=O)N2CCCCC2COCCC(=O)N2CCC(OCCN3CCCC3)(c3cccc(F)c3)CC2)c(C)c1 (stereo not shown) [Example 121, 1-[4-(3-fluorophenyl)-4-(2-pyrrolidin-1-yl-ethoxy)-piperidin-1-yl]-3-[[1-[(4-methoxy-2,6-dimethyl-phenyl)sulfonyl]-piperidin-2-yl]-methoxy]-propan-1-one]
2 |  |  | 100% | 100% | COc1cc(C)c(S(=O)(=O)N2CCCCC2COCCC(=O)N2CCC(OCCN3CCCC3)(c3cccc(F)c3)CC2)c(C)c1 (stereo not shown) [Example 122, 1-[4-(3-fluorophenyl)-4-(2-pyrrolidin-1-yl-ethoxy)-piperidin-1-yl]-3-[[1-[(4-methoxy-2,6-dimethyl-phenyl)sulfonyl]-piperidin-2-yl]-methoxy]-propan-1-one]
